Reference: patent publication US20200223889A1, “Bicyclic Compounds Capable of Binding to Melanocortin 4 Receptor” (Novo Nordisk A/S, priority 2017, published 2020)
Positions of bridges follow the written chain, without caps; N, C: chain ends. Non-standard residues stand in square brackets, D forms with d. Residues, ends and D or L forms follow the SMILES beside them. Thz = O=C(O)[C@@H]1CSCN1

How the values were obtained:
human MC4R = target: T1, human MC4R (Homo sapiens, UniProt P32245); test: Functional cAMP assay (CisBio HTRF) in BHK cells expressing human MC4R; type: cell-based
T1 construct: expressed in transfected cells
T1 sequence (P32245 whole entry): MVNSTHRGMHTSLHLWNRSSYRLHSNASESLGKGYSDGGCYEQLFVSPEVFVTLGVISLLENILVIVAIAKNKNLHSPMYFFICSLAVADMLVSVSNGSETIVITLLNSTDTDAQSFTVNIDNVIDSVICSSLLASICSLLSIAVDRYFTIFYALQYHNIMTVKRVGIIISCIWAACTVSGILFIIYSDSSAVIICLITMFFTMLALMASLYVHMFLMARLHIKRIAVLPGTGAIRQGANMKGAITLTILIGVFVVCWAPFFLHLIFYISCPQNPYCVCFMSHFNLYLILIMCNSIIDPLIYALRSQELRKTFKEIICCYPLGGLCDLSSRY
How it was run: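 Compound working solutions, 10-fold dilutions from 2 μM at twice final strength, in buffer containing 1 mM IBMX, were incubated 30 min at 25 °C with BHK cells stably carrying human MC4R or MC1R. Accumulated cAMP was then detected by competitive HTRF after 1 h at 25 °C and fitted by non-linear regression.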

[1] = In vivo acute food intake model (BioDAQ) in C57BL/6J male mice; settings: single subcutaneous dose 1 mg/kg, cumulative food intake
Experimental: The MC4R system is central to appetite regulation and agonists are known inhibit food intake. In order to screen compounds in a relevant in vivo model, efficacy was assessed by determining the effect of the compound on reducing food intake acutely in mice.
All animal protocols were approved by an Institutional Animal Care and Use Committee and Ethical Review Committee of Novo Nordisk. Animals were housed according to Novo Nordisk rodent housing standards, and were given ad libitum access to food and water under controlled lighting (12 h:12 h light/dark cycle; lights off 11:00-23:00), temperature (23±2° C.) and relative humidity (50±20%) conditions. For each acute food intake study C57BL/6J male mice (25-30 grams body weight) were acclimated for two weeks to the appropriate light cycle and to single-housing (one mouse per cage) in cages linked to a BioDAQ automated food intake system (Research Diets Inc., New Brunswick, N.J. USA). The animals were also acclimated to new food (Research Diets 12450B, 10% kcal fat) during this time.
The BioDAQ is a computer automated scientific instrument for Biological Data Acquisition of food intake in rodents and measures food intake from each cage every 15 minutes. A total of 32 animals can be accommodated in the system per study, therefore, animals were randomized into 4 groups of n=8 for each study. […] Animals were fasted ˜4 hr prior to dosing. Vehicle (10 mM phosphate; 140 mM sodium chloride) or compound was dosed at a volume of 10 ml per kg subcutaneously approximately 20 minutes prior to the start of the dark cycle (compound chem no. and dosages are indicated in table 2 below). After dosing, food intake was recorded for approximately 24 hours.
The inhibitory effect of compounds on food intake was generally well-correlated with in vitro binding affinity on the human MC4 receptor and with plasma stability of the compound. Most studies were conducted as dose response studies with vehicle and the compound at 3 doses (0.3, 1 and 3 mg/kg). Some studies were done for the purpose of dose-range finding, while others were done to comparatively assess the effect of 3 compounds at the same dose. Maximal effects on food intake occurred within the first 1-5 hours post-dose. The comparative effect of compounds across studies on food intake was assessed by normalizing measurements as % effect on cumulative food intake after a single subcutaneous dose, relative to vehicle. Results are reported in Table 2 as % effect on food intake at 3 hours post dose.

C[C@@H]1NC(=O)[C@H](CCCCN)NC(=O)[C@@H]2CSSC[C@H](NC(=O)[C@H](Cc3c[nH]c4ccccc34)NC(=O)[C@H](C)NC(=O)[C@@H](CCCCN)NC1=O)C(=O)N1CSC[C@H]1C(=O)N[C@@H](Cc1c[nH]cn1)C(=O)N[C@H](Cc1ccccc1)C(=O)N[C@@H](Cc1c[nH]cn1)C(=O)N[C@@H](Cc1c[nH]c3ccccc13)C(=O)N2 [Chem. 114, c[c[Cys-THAZ-His-D-Phe-His-Trp- Cys]-Lys-Ala-D-Lys-Ala-Trp]] (cyclo(AWC[Thz]H[dF]HWCKA[dK]); disulfide 3-9)
EC50 (human MC4R; BHK cells expressing human MC4R, '>' = highest dose used with no response, read-out: MC4R cAMP EC50): 0.04 nM
MC1R/MC4R cAMP EC50 ratio (human MC4R; MC1R cAMP EC50 divided by MC4R cAMP EC50): 2844
% Effect on food intake at 3 hours post dose, relative to vehicle [1]: −64 ± 6%
